This note sets out measurements from article PMC12040169 (PLOS Biology, 2025).

SMILES strings stand for the structures.

The series can be described thus: in vitro. The settings on record: human, hela cells, % viability.
What is called viability is a read-out of living cells in per cent, often relative to untreated cells. `O=C(NCc1c(F)cccc1F)c1ccc(-c2ccc(OC(F)(F)F)cc2)nc1` [CBK161007T]: the viability at 28.5 h, 10 µM was 97.6%.
The same measure for `CC(=O)NCc1cccc(-c2cncc(C(=O)Nc3ccc4c(c3)OCCO4)c2)c1` [CBK161009T]: 82.1%; for `CCc1ccc(CNC(=O)Cn2nnc(-c3ccc(CNC4CCOCC4)cc3)n2)cc1` [CBK161029C]: 89.8%.
In the case of `CCSCCN1CCC(Oc2nccnc2OCc2ccc(Br)cc2F)CC1` [CBK161087], the viability at 28.5 h, 10 µM was 98.7%.
For `NC(=O)c1cccc(CN2CCOC3(CCN(C(=O)OCc4ccccc4)CC3)C2)c1` [CBK161100T], the viability at 28.5 h, 10 µM turned out to be 90.4%.
The same measure for `COc1cc(OC)nc(CN2CCOC3(CCN(C(=O)OCc4ccccc4)CC3)C2)n1` [CBK161101T]: 96.2%; for `N#Cc1ccc(CN2CCOC3(CCN(C(=O)OCc4ccccc4)CC3)C2)cc1` [CBK161103T]: 99.1%.
With `O=C(OCc1ccccc1)N1CCC2(CC1)CN(c1ccc(C(F)(F)F)cn1)CCO2` [CBK161116T], the viability at 28.5 h, 10 µM worked out at 95.8%.
Consider `COc1ccc([N+](=O)[O-])c(N2CCOC3(CCN(C(=O)OCc4ccccc4)CC3)C2)n1` [CBK161117T], for which the viability at 28.5 h, 10 µM was 103%.
Take `O=C(c1ccc2ccccc2c1)N1CCC2(CC1)CN(Cc1ccccc1)CCO2` [CBK161118A]: the viability at 28.5 h, 10 µM is 94.1%.
With `CS(=O)(=O)c1ccc(CN2CCOC3(CCN(C(=O)c4ccc5ccccc5c4)CC3)C2)cc1` [CBK161122A], the viability at 28.5 h, 10 µM was found to be 104%.
The result for `Cc1cc(N2CCOC3(CCN(C(=O)c4ccc5ccccc5c4)CC3)C2)nc(N)n1` [CBK161125A] reads 93.2%; that for `Fc1cc(Br)ccc1COc1cccnc1Cl` [CBK161281], 68.4%; that for `O=C(O)C1CCCN(C(=O)NCC2COc3ccccc3O2)C1` (stereo not drawn) [CBK161342], 121%.
In the case of `CSCCCNC(=O)N1CCCC(C(=O)O)C1` (stereo not drawn) [CBK161343], the viability at 28.5 h, 10 µM came out at 92.1%.
As to `O=C(O)C1CCCN(C(=O)NCc2cccc(C(F)(F)F)c2)C1` (stereo not drawn) [CBK161345], the viability at 28.5 h, 10 µM amounted to 94.5%.
The result for `COc1ccc2[nH]cc(CCNC(=O)N3CCCC(C(=O)O)C3)c2c1` (stereo not drawn) [CBK161351] reads 108%; that for `N#Cc1ccc(CNC(=O)N2CCCC(C(=O)O)C2)cc1` (stereo not drawn) [CBK161352], 89.5%; that for `COc1ccc(CCNC(=O)N2CCCC(C(=O)O)C2)cc1OC` (stereo not drawn) [CBK161354], 100%.
`O=C(O)C1CCCN(C(=O)NCc2c(Cl)cccc2Cl)C1` (stereo not drawn) [CBK161362]: the viability at 28.5 h, 10 µM came to 90%.
On to `O=C(O)C1CCCN1C(=O)NCc1c(Cl)cccc1Cl` (stereo not drawn) [CBK161383], for which the viability at 28.5 h, 10 µM is 88.1%.
Regarding `COc1cc(CNC(=O)N2CCC(C(=O)O)CC2)cc(OC)c1OC` [CBK161401], the viability at 28.5 h, 10 µM is 81.5%.
The result for `COc1ccc(CCNC(=O)N2CCC(C(=O)O)CC2)cc1OC` [CBK161404] reads 110%; that for `O=C(O)C1CCN(C(=O)Nc2ccccc2Cl)CC1` [CBK161407], 106%; that for `CCc1ccc(OCC(O)Cn2nnc(-c3ccc(CN4CCC(C)CC4)cc3)n2)cc1` (stereo not drawn) [CBK161437T], 111%.
The result for `CC(=O)NCc1cccc(-c2cc(CO)cnc2-c2ccc(Cl)cc2)c1` [CBK161445] reads 94.6%.
The same measure for `CCN(NC(=O)c1cc2cccc(OC)c2o1)c1ccc(C)cc1` [CBK161484]: 106%; for `CCOC(=O)CCNC(=O)C1(c2ccc(OC)cc2)CC1` [CBK161490]: 87.3%.
`CCN(NC(=O)c1ccccc1-n1cccc1)c1ccc(C)cc1` [CBK161507]: the viability at 28.5 h, 10 µM stood at 110%.
The result for `CC(C)c1ccc(/C=C/C(=O)NCc2ccc(NS(C)(=O)=O)cc2)cc1` [CBK161512] reads 97.8%.
Regarding `CS(=O)(=O)c1ccc(CNC(=O)C2(c3ccccc3)CCCC2)cc1` [CBK161524], the viability at 28.5 h, 10 µM stood at 96.3%.
The result for `CS(=O)(=O)Nc1ccc(CNC(=O)C2(c3ccccc3)CCCC2)cc1` [CBK161525] reads 101%; that for `O=C(c1ccccc1)c1ccc(CNC(=O)C2(c3ccccc3)CCCC2)cc1` [CBK161526], 87.6%; that for `N#CCCCN1CCC(Oc2nccnc2OCc2ccc(-c3ccccc3)cc2)CC1` [CBK161566], 95.4%.
As for `N#CCCCN1CCC(Oc2nccnc2OCc2cccc(OCc3ccccc3)c2)CC1` [CBK161572], the viability at 28.5 h, 10 µM came out at 97.5%.
The result for `Cc1cc(C)c(COc2nccnc2OC2CCN(CCCC#N)CC2)c(C)c1` [CBK161575] reads 91.6%; that for `CC(=O)NCCOc1nccnc1OCc1ccc(Cl)c(Cl)c1` [CBK161582], 96.4%; that for `CCCCOc1ccc(Oc2ncc(C(F)(F)F)cc2Cl)cc1` [CBK161629], 94.4%.
The result for `N#CCCc1ccc(Oc2ncc(C(F)(F)F)cc2Cl)cc1` [CBK161635] reads 106%; that for `OCCc1ccc(Oc2ncc(C(F)(F)F)cc2Cl)cc1` [CBK161643], 94.6%; that for `CN(C(=O)c1cccs1)c1ccc(Oc2ncc(C(F)(F)F)cc2Cl)cc1` [CBK161654], 89.6%.
The result for `O=C(C(CO)c1ccccc1)N1CCC2(CCN(CCCCOc3ccccc3)C2)C1` (stereo not drawn) [CBK161722] reads 90%; that for `CC(=O)NCc1cccc(-c2cc(OCC3COc4ccccc4O3)cnc2C)c1` (stereo not drawn) [CBK161723A], 112%; that for `O=C(Nc1cccc(Oc2ccccc2)c1)c1ccc2[nH]ccc2c1` [CBK161728], 97.5%.
As for `CS(=O)(=O)Nc1ccc(CNC(=O)c2ccc3[nH]ccc3c2)cc1` [CBK161747], the viability at 28.5 h, 10 µM is 93.5%.
The result for `O=C(Cc1cc(F)c(F)c(F)c1)Nc1cnccn1` [CBK161764] reads 90.1%.
In the case of `CS(=O)(=O)c1ccc(Cn2ccnc(OC3CCN(C(=O)c4ccc(C#N)cc4)CC3)c2=O)cc1` [CBK161804], the viability at 28.5 h, 10 µM was 92.4%.
The same measure for `CS(=O)(=O)c1ccc(Cn2ccnc(OC3CCN(C(=O)c4cccc(C#N)c4)CC3)c2=O)cc1` [CBK161810]: 105%; for `Cc1cc(C(=O)N2CCC(Oc3nccn(Cc4ccc(S(C)(=O)=O)cc4)c3=O)CC2)ccc1Cl` [CBK161883]: 92.6%; for `COC1CCC(C(=O)N2CCC(COc3ccc(-c4ccc(S(C)(=O)=O)cc4)cn3)CC2)CC1` (stereo not drawn) [CBK161995]: 80.3%.
The result for `COc1cccc(Cc2c(C)nc3c(C(=O)NCCCN4CCCC4=O)cnn3c2C)c1` [CBK162055] reads 111%.
The same measure for `COc1cccc(Cc2c(C)nc3c(C(=O)NCC4COc5ccccc5O4)cnn3c2C)c1` (stereo not drawn) [CBK162064]: 111%; for `COCCCNC(=O)c1cnn2c(C)c(Cc3cccc(F)c3)c(C)nc12` [CBK162126]: 116%; for `CCc1c(C)nc2c(C(=O)NCCCN3CCCC3=O)cnn2c1C` [CBK162128]: 96.2%.
On to `CCc1c(C)nc2c(C(=O)NCCOC)cnn2c1C` [CBK162143], for which the viability at 28.5 h, 10 µM turned out to be 93.9%.
The same measure for `CCc1c(C)nc2c(C(=O)N3CCCC3COC)cnn2c1C` (stereo not drawn) [CBK162146]: 92.1%; for `Cc1nc2c(C(=O)NCCCN3CCCC3=O)cnn2c(C)c1Cc1cccnc1` [CBK162151]: 108%; for `CCOCCCNC(=O)c1cnn2c(C)c(Cc3cccnc3)c(C)nc12` [CBK162152]: 100%.
As to `Cc1nc2c(C(=O)NCCC3OCCO3)cnn2c(C)c1Cc1cccnc1` [CBK162159], the viability at 28.5 h, 10 µM came out at 108%.
The result for `Cc1nc2c(C(=O)NCC3CCCO3)cnn2c(C)c1Cc1cccnc1` (stereo not drawn) [CBK162160] reads 85.8%.
The same measure for `COc1ccc(Cc2c(C)nc3c(C(=O)NCC4CCCO4)cnn3c2C)cc1` (stereo not drawn) [CBK162183]: 88.5%; for `Cc1nc2c(C(=O)N3CCOCC3)cnn2c(C)c1Cc1ccccc1` [CBK162201]: 113%.
The result for `Cc1nc2c(C(=O)NCC(F)(F)F)cnn2c(C)c1Cc1ccccc1` [CBK162208] reads 94.8%.
Consider `COCC1CCCN1C(=O)c1cnn2c(C)c(Cc3ccccc3)c(C)nc12` (stereo not drawn) [CBK162213], for which the viability at 28.5 h, 10 µM came to 93.9%.
In the case of `COCCCNC(=O)c1cnn2c(C)c(Cc3ccccc3)c(C)nc12` [CBK162216], the viability at 28.5 h, 10 µM is 94.6%.
For the molecule `CS(=O)(=O)c1ccc(-c2ccc(COC3CCN(C(=O)CCCc4ccc(F)cc4)CC3)cn2)cc1` [CBK162229T], the viability at 28.5 h, 10 µM was 91.6%.
With `CS(=O)(=O)c1ccc(-c2ccc(COC3CCN(C(=O)Cc4cccc(C(F)(F)F)c4)CC3)cn2)cc1` [CBK162231T], the viability at 28.5 h, 10 µM came out at 102%.
The result for `COc1ccc(C(=O)CN2CCC3(CC2)CC(=O)c2cc(Br)ccc2O3)cc1` [CBK162265] reads 114%; that for `CS(=O)(=O)c1ccc(-c2ccc(OCC3CCN(C(=O)c4cccc(C#N)c4)CC3)nc2)cc1` [CBK162283], 93.3%.
With `O=C(Nc1ccc2c(c1)OCCO2)N1CCN(c2cc(C(F)(F)F)ccn2)CC1` [CBK162331], the viability at 28.5 h, 10 µM was 99.4%.
In the case of `COc1ccc(CNC(=O)N2CCN(c3cc(C(F)(F)F)ccn3)CC2)cc1OC` [CBK162344], the viability at 28.5 h, 10 µM is 82.5%.
In the case of `COc1cc(NC(=O)N2CCN(c3cc(C(F)(F)F)ccn3)CC2)cc(OC)c1OC` [CBK162349], the viability at 28.5 h, 10 µM turned out to be 95.2%.
The result for `O=C1C2CCCCN2C(=O)N1c1cccnc1` (stereo not drawn) [CBK162359] reads 114%.
With `CSCCCN1C(=O)CN(Cc2ccccc2)C1=O` [CBK162363], the viability at 28.5 h, 10 µM stood at 91.4%.
The same measure for `O=C1CN(Cc2ccccc2)C(=O)N1CC1CCCCC1` [CBK162367]: 93.7%; for `COCCN1C(=O)CN(Cc2ccccc2)C1=O` [CBK162369]: 95.1%.
The same measure for `CS(=O)(=O)c1ccc(-c2ccc(CN3CCN(C(=O)Cc4ccc(F)cc4F)CC3)cn2)cc1` [CBK162618T]: 122%; for `Cc1ccc(S(=O)(=O)N(Cc2c(F)cccc2F)C2CCNCC2)cc1` [CBK163927T]: 89.9%.
